Reference: US6211209A, “Method of inhibiting connective tissue degradation” (Warner-Lambert Company, priority 1998, dated 2001)

How the values were obtained:
Assay type in all cases: cell-based
92 kDa gelatinase = experiment: Gelatin zymography of bovine nasal cartilage conditioned media: expression of 92 kDa gelatinase
Description: (§1) To evaluate the effects of the compounds of the present invention on the expression of 72 kDa and 92 kDa gelatinases, samples obtained from the bovine nasal cartilage study (described above) were subjected to gelatin zymography.
(§2) Separating gels (8%) were made by combining 400 μL gelatin (25 mg/mL) with: 2.5 mL Tris (1.5 M); 100 μL SDS (10%); 2.6 mL acrylamide (30%); 10 μL TEMED; 4.6 mL dH2 O; 100 μL ammonium persulfate (10%). Stacking gels (4.5%) were formed by combining: 2.5 mL Tris (0.5 M); 100 μL SDS (10%); 1.5 mL acrylamide (30%); 10 μL TEMED; 5.8 mL dH2 O; 100 μL ammonium persulfate (10%).
(§3) Bovine nasal cartilage conditioned media was diluted (1:15) using sample buffer 1X (2% SDS, 15% glycerol, 0.01% bromophenol blue, 0.25M Trizma Base, pH 6.8). Thirty microliters of each of the diluted samples and molecular weight standards were subjected to electrophoresis at 4° C. under constant current conditions (20 mA of current/gel) using Tris/Glycine running buffer (0.5 M Trizma Base, pH 8.8 using glycine, 1% SDS) that was diluted 1:20 before use.
After completion of the electrophoretic procedure, the gel was first washed twice for 15 minutes in 2.5% Triton X-100. The gel was then rinsed with the gel incubation buffer (0.05 M Tris, pH 8.2, 0.005 M CaCl2, 0.5 μM ZnCl2) and incubated overnight in this buffer at 37° C. After the incubation period, the gel was stained for 30 minutes in 0.125% Coomassie and destained using 10% methanol/5% acetic acid destaining solution.

72 kDa gelatinase = experiment: Gelatin zymography of bovine nasal cartilage conditioned media: expression of 72 kDa gelatinase; details: various concentrations, FIG. 1
Description: as §1, §2, §3
After completion of the electrophoretic procedure, the gel was first washed twice for 15 minutes in 2.5% Triton X-100. The gel was then rinsed with the gel incubation buffer (0.05 M Tris, pH 8.2, 0.005 M CaCl2, 0.5 μM ZnCl2) and incubated overnight in this buffer at 37° C. […]

[1] = system: human articular cartilage; experiment: Human articular cartilage assay: IL-1α-induced proteoglycan loss from osteoarthritic cartilage; details: for % Proteoglycan Release: 30 μM, with IL-1α, mean ± SE
Description: Human articular cartilage was obtained from St. Joseph Hospital in Ypsilanti, Mich.; cell culture reagents from Gibco (Grand Island, N.Y.); human recombinant Interleukin-1α (IL1α) from Genzyme (Cambridge, Mass.); DMB from Polysciences (Warrington, Pa.); Falcon 24 well flat-bottom tissue culture plates from Becton Dickinson (Lincoln Park, N.Y.); Papain from Sigma (P-3125, St. Louis, Mo.); high purity dimethyl sulfoxide from Burdic & Jackson (081-1, Distributed by Baxter Healthcare, McGraw Park, Ill.); Sarstedt vials for 96-vial aluminum racks (Sarstedt, Newton, N.C.); Cetus Pro/Pette (Perkin Elmer, Norwalk, Conn.); Biomek 1000 (Beckman, Fullerton, Calif.)
The assay was performed in two phases. The cartilage pieces were first incubated with IL-1α in the presence of compound. The amount of proteoglycan released was then quantified by measuring chondroitin sulfate present in the media using the 1,9-Dimethylmethylene Blue Assay (DMB).
The articular cartilage used in this study was obtained from osteoarthritis patients undergoing total knee or hip replacment surgery. The ages of the patients ranged from 50 to 70 years. To establish cartilage organ cultures, uniform cartilage slices measuring 11 mm×11 mm were dissected from the underlying bone using a #20 scalpel blade and placed in isotonic saline. The cartilage slices were washed in Gey's balanced salt solution and placed (one piece/well) in Falcon 24 well flat-bottom tissue culture plates (Becton Dickinson, Lincoln Park, N.J.). The cartilage organ cultures were maintained in complete Ham's F-12 (supplemented with 10% fetal calf serum, 6.5 mg/mL Hepes, 58.5 μg/mL glutamine, 200 μg/mL MgSO4, 100 units/mL Pencillin G sodium, 100 μg/mL streptomycin sulfate, and 0.25 μg/mL amphotericin B) at 37° C. in a humidified atmosphere of 95% air and 5% CO2. The cartilage cultures were allowed to equilibrate in this medium for 4 to 5 days. Just before starting the experiment, the serum-containing spent medium was removed and cartilage cultures rinsed with 1 mL F-12 Nutrient Mixture (without phenol red) in order to remove residual FCS. Each treatment group was done in triplicate. […] All the media removed from cultures was collected and analyzed using the 1,9 DMB assay. At the end of experimental period, cartilage pieces were digested with papain and analysed using the 1,9 DMB assay.
The ability of a compound to inhibit proteoglycan release from cartilage pieces was quantified by measuring chondroitin sulfate. […] This color change was measured using a Titertek Multiscan MCC 340 plate reader at 540 nm. […] It was necessary to dilute (1:5, 1:10) the medium before a DMB assay was performed by adding 10 μL of collected media to 290 μL DMB (16 mg dye/L of 0.1 M formate buffer, pH 3.5, containing 5 mL ethanol) and reading at 540 nm. […]

`S=c1[nH]nc(-c2ccccc2Nc2ccccc2)o1` [Compound 1, 5-(2-Phenylamino-phenyl)-3H-[1,3,4]oxadiazole-2-thione] was tested, and the “inhibiting expression of IL-1β-induced 92 kDa gelatinase” value (92 kDa gelatinase; various concentrations, IL-1β-induced, FIG. 1) was “effective in inhibiting expression of IL-1β-induced 92 kDa gelatinase in a dose-dependent manner”, the “specificity of effects (92 kDa versus 72 kDa gelatinase)” value (92 kDa gelatinase; versus 72 kDa gelatinase) was “specific to 92 kDa” and the “effect on expression of 72 kDa gelatinase” value (72 kDa gelatinase) was “no effect on expression of 72 kDa gelatinase”. The “% Proteoglycan Release” value ([1]; 48 hours, n = 3 (control 3.7, IL-1α 9.0)) was 4.0 ± 0.2%, the “% Proteoglycan Release” value ([1]; 96 hours, n = 3 (control 5.7, IL-1α 14.4)) was 7.4 ± 0.4% and the “% Proteoglycan Release” value ([1]; 144 hours, n = 3 (control 7.0, IL-1α 16.9)) was 10.0 ± 0.8%. It also gave an inhibition at 30 µM ([1]; over the course of the experiment, human osteoarthritic cartilage) greater than 70%.
